Earlier results in patent US7838081B2, “Liquor that avoids the apparition of stains produced by fungi in lignocellulosic materials such as wood” (priority 2005, dated 2010).

Row | SMILES | LD50 acute termal rabbit (rabbit) [mg/kg] | LD50 acute oral rat (rat) [mg/kg] | Results against stains of the wood (in words) (stains of the wood)
1 | Oc1c(Br)cc(Br)cc1Br [2,4,6 Tribromophenol] | >8.000 | >5.000 | good results
2 | [Cu+2].[O-]c1cccc2cccnc12.[O-]c1cccc2cccnc12 [Copper 8 oxiquinolinate (PQ-8), Copper 8 oxiquinolinate] | >2.000 | 3.900 to 4.700 | 
3 | Oc1c(Cl)c(Cl)c(Cl)c(Cl)c1Cl [Pentachlorophenol] |  |  | good results
